{"source": "patent US20150335679A1", "about": "“Methods and Compositions for Treating Malignancies with Dendritic Cells” (Kiromic, LLC, priority 2014, published 2015)", "origin": "cited, not measured here", "key": {"[1]": {"tested_on": "advanced solid tumors"}, "[2]": {"tested_on": "Treg", "conditions": "low-dose"}, "[3]": {"tested_on": "Tregs; breast tumor-reactive T cells"}, "[4]": {"tested_on": "Tregs"}, "[5]": {"conditions": "50 mg orally daily for 3 months"}}, "note": "Read-outs that look alike come from different tables or passages of the source."}
{"smiles": "O=P1(N(CCCl)CCCl)NCCCO1", "note": "(stereo not drawn) [CYP, cyclophosphamide]", "values": [{"measurement": "rates of disease control", "setting": "[1]; all CYP regimens (oral 50 mg/day, single i.v. 1,000 mg, or both) vs adenovirus only", "value": "higher rates of disease control"}, {"measurement": "decrease of Treg numbers", "setting": "[1]; metronomic groups", "value": "most effective in decreasing Treg numbers"}, {"measurement": "Treg number and functionality", "setting": "[2]", "value": "decreases"}, {"measurement": "course of Tregs", "setting": "[3]; [5]", "value": "remained decreased until day 42, returning to pretreatment levels by day 84"}, {"measurement": "time to reduction of Tregs", "setting": "[3]; [5]", "value": "≤ 14", "unit": "days"}, {"measurement": "patients with endogenous breast tumor-reactive T cells", "setting": "[3]; day 14, 27% before CYP treatment", "value": 73, "unit": "%"}, {"measurement": "patients with endogenous breast tumor-reactive T cells", "setting": "[3]; day 42", "value": 80, "unit": "%"}, {"measurement": "patients with endogenous breast tumor-reactive T cells", "setting": "[3]; day 84", "value": 88, "unit": "%"}, {"measurement": "Treg suppressor function", "setting": "[4]; 250 mg/m^2", "value": "impaired suppressor function"}, {"measurement": "duration of decreased Treg frequency", "setting": "[4]; 250 mg/m^2", "value": "decreased Treg frequency up to day 71"}, {"measurement": "Alpha-fetoprotein-specific T-cell responses", "setting": "[4]; lower treatment arms", "value": "induced"}, {"measurement": "absolute and relative frequency of Tregs in the blood of patients", "setting": "[4]; the two lower doses (150, 250 mg/m^2)", "value": "induced a decrease"}]}
